Reference: PubChem BioAssay AID2060508 (Molecular Pharmacology Branch, DTP, NCI, 2025)
Values joined by “and” are separate entries in the source; they are usually repeats but may differ in a detail not shown here. Equal entries are not always repeated.

System: 454973-116-R2-J3-PDC spheroids, viability, % test/control
Experiment: Anticancer human tumor 454973-116-R2-J3-PDC patient-derived pancreatic carcinoma cell line growth inhibition [GQUAD]
Settings: spheroids with HUVEC and MSC; for viability, T/C: stronger effect = lower value
Excerpt: DNA G-quadruplex Stabilizer Agents in Combinations in Complex Spheroids
A high-throughput screen of multi-cell type tumor spheroids was designed to identify active combinations of DNA G-quadruplex stabilizer agents and targeted small molecules. Complex spheroids include a stromal component modeled by human endothelial cells (HUVEC) and fibroblasts modeled by human mesenchymal stem cells (MSCs). The concentration ranges selected for each drug and investigational agent were based upon clinically achievable concentrations if the clinical Cmax of the agent was known.
Compounds. The drugs and investigational agents: pidnarulex (CX-5461; NSC782164), APTO-253 (NSC789042), BRACO-19 (NSC847499), peposertib (NSC802822), ceralasertib (NSC780249), elimusertib (NSC800525), camonsertib (NSC841442), AZD-1390 (NSC803789), olaparib (NSC753686), talazoparib (NSC767125), ART-558 (NSC835418), sotorasib (NSC818433), MRTX-1133 (NSC836407), SN-38 (NSC673596), topotecan (NSC609699), etoposide (NSC141540), doxorubicin (NSC123127), gemcitabine (NSC613327), 5-fluorouracil (NSC19893), paclitaxel (NSC125973), vemurafenib (NSC761431), panobinostat (NSC761190), R-306465 (JNJ-16241199; NSC773264), adavosertib (NSC754352), TP-3654 (NSC805149), carboplatin (NSC241240), KSQ-4279 (NSC840948), and staurosporine (NSC755774) were obtained from the National Cancer Institute (NCI) Developmental Therapeutics Program Chemical Repository (34). The FDA-approved anticancer drug set is available from the NCI Developmental Therapeutics Program. […] The stock solutions were prepared in dimethyl sulfoxide (DMSO, Sigma-Aldrich, St. Louis, MO, cat. D2650) at 800-fold the tested concentration and stored at -70 degrees C prior to their use. All drugs and investigational agents were tested over a range starting from a high concentration at or near the clinical Cmax and decreasing in half-log increments. If the clinical Cmax for an agent had not been determined, the highest concentration tested was 10 microM.
2.3 Cell Culture. All cells were maintained in an incubator at 37 degrees C and 5% CO2 with 95% humidity. The PDC lines were cultured according to standard operating procedures established by the NCI PDMR. All PDCs were thawed and cultured in Matrigel-coated flasks prepared with a working solution of 1X Ham's F-12 nutrient mix, without supplementation (Invitrogen, cat. 11765054), 100 U/mL penicillin-streptomycin (Invitrogen, cat. 15140122), and 2.5% Matrigel (Corning Inc., cat. 354248) for the first three passages. The 857933-349-R-J2-PDC line was cultured in 6C/Colon 1B media, which includes advanced DMEM/F-12 (Thermo Fisher Scientific, cat. 12634028), 10 mM HEPES (Thermo Fisher Scientific, cat. 15630080), 1X GlutaMAX supplement (Thermo Fisher Scientific, cat. 35050061), 0.1 mg/mL primocin (InvivoGen, cat. ant-pm-2), 10% defined fetal bovine serum, heat inactivated (HyClone Laboratories Inc., cat. SH30070.03HI), 50% L-WRN conditioned media (ATCC, cat. CRL-3276), 1.25 mM N-Acetyl-L-cysteine (Sigma-Aldrich, cat. A9165), 10 mM nicotinamide (Sigma-Aldrich, cat. N0636), 1X B-27 supplement (Thermo Fisher Scientific, cat. 17504044), 1X N-2 supplement (Thermo Fisher Scientific, cat. 17502048), 10 microM Y-27632 dihydrochloride (Tocris Bioscience, cat. 1254), and 50 ng/mL human EGF recombinant protein (Thermo Fisher Scientific, cat. PHG0311). The 485176-168-R4-J1-PDC line was cultured in Panc media, which includes all 6C/Colon 1B media components plus 100 ng/mL human FGF-10 (Thermo Fisher Scientific, cat. 100-26), 500 nM SB-431542 (Selleckchem, cat. S1067), and gastrin (Tocris, cat. 3006).
[…]
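Also: spheroids exposed to compounds for seven days.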

In the case of `C#Cc1c(F)ccc2cc(O)cc(-c3ncc4c(N5CC6CCC(C5)N6)nc(OCC56CCCN5CC(F)C6)nc4c3F)c12` (stereo unspecified), the viability, T/C (compound 0.0316 µM) is reported as 52.7% and 54.6% and 60.6%, the viability, T/C (compound 0.1 µM) is reported as 42.3% and 39% and 39.8% and the viability, T/C (compound 0.316 µM) is reported as 31.2% and 22.9% and 28.2%. The viability, T/C (compound 1 µM) was 27.5% and 20.6% and 21.6%, the viability, T/C (compound 3.16 µM) was 23.3% and 19.5% and 22% and the viability, T/C (compound 10 µM) was 19% and 15.4% and 15.2%. The IC50 (curve of compound) was 42.3 nM and 44.4 nM and 56.7 nM.

`C=CC(=O)N1CCN(c2nc(=O)n(-c3c(C)ccnc3C(C)C)c3nc(-c4c(O)cccc4F)c(F)cc23)C(C)C1` (stereo unspecified) was tested, and the viability, T/C (compound 0.0316 µM) was 105% and 109% and 98.9%, the viability, T/C (compound 0.1 µM) was 108% and 100% and 98.3% and the viability, T/C (compound 0.316 µM) was 108% and 105% and 116%. The viability, T/C (compound 1 µM) was 111% and 116% and 110%, the viability, T/C (compound 3.16 µM) was 111% and 110% and 115% and the viability, T/C (compound 10 µM) was 115% and 108% and 109%. For the same compound, the IC50 (curve of compound) was over 10000 nM.

For `C=CCn1c(=O)c2cnc(Nc3ccc(N4CCN(C)CC4)cc3)nc2n1-c1cccc(C(C)(C)O)n1`, the viability, T/C (compound 0.0316 µM) was 108% (2×) and 104%, the viability, T/C (compound 0.1 µM) was 104% and 86.2% and 90.6% and the viability, T/C (compound 0.316 µM) was 54.8% and 68.5% and 59.1%. The viability, T/C (compound 1 µM) was 17.5% and 15.8% and 14.5%, the viability, T/C (compound 3.16 µM) was 7.41% and 7.71% and 9.27% and the viability, T/C (compound 10 µM) was 9.65% and 8.23% and 9.05%. The IC50 (curve of compound) was 373 nM and 456 nM and 387 nM.

For `CC(=O)O[C@H]1C(=O)[C@@]2(C)[C@H]([C@H](OC(=O)c3ccccc3)[C@]3(O)C[C@H](OC(=O)[C@H](O)[C@@H](NC(=O)c4ccccc4)c4ccccc4)C(C)=C1C3(C)C)[C@]1(OC(C)=O)CO[C@@H]1C[C@@H]2O`, the viability, T/C (compound 0.0316 µM) was 16.1% and 19.8% and 21.1%, the viability, T/C (compound 0.1 µM) was 8.55% and 9.04% and 12.4% and the viability, T/C (compound 0.316 µM) was 7.38% and 7.58% and 9.89%. The viability, T/C (compound 1 µM) was 7.17% and 7.18% and 9.08%, the viability, T/C (compound 3.16 µM) was 6.82% and 7.18% and 9.43% and the viability, T/C (compound 10 µM) was 9.29% and 10.2% and 11.2%. For the same compound, the IC50 (curve of compound) was under 31.6 nM.

`CC(C)(O)C1CCC(Nc2ccc3ncc(-c4cccc(C(F)(F)F)c4)n3n2)CC1` (stereo unspecified) was tested, and the viability, T/C (compound 0.0316 µM) was 105% and 109% and 106%, the viability, T/C (compound 0.1 µM) was 99.6% and 101% and 93.8% and the viability, T/C (compound 0.316 µM) was 98.4% and 95.2% and 111%. For the same compound, the viability, T/C (compound 1 µM) was 77.4% and 76.5% and 90.4%, the viability, T/C (compound 3.16 µM) was 30.5% and 26.7% and 22.5% and the viability, T/C (compound 10 µM) was 35% and 28.9% and 29.6%. The IC50 (curve of compound) was 2030 nM and 1880 nM and 2060 nM.

With `CC(C)n1c(=O)n(C)c2cnc3cc(F)c(-c4ccc(OCCCN5CCCCC5)nc4)cc3c21` the viability, T/C (compound 0.0316 µM) was 104% and 111% and 96.6%, the viability, T/C (compound 0.1 µM) was 103% and 98.6% and 97.8% and the viability, T/C (compound 0.316 µM) was 97.7% and 102% and 92.9%. The viability, T/C (compound 1 µM) was 101% and 92.8% and 92.4%, the viability, T/C (compound 3.16 µM) was 91.9% and 89.9% and 91.4% and the viability, T/C (compound 10 µM) was 64% and 74.3% and 68.2%. The IC50 (curve of compound) was over 10000 nM.

In the case of `CC1COCCN1c1cc(-c2ccnn2C)c2ccnc(-c3ccn[nH]3)c2n1` (stereo unspecified), the viability, T/C (compound 0.0316 µM) is reported as 93.7% and 96.6% and 80.7%, the viability, T/C (compound 0.1 µM) is reported as 60.6% and 68% and 55.6% and the viability, T/C (compound 0.316 µM) is reported as 29.6% and 31.4% and 26.2%. The viability, T/C (compound 1 µM) was 26.3% and 24% and 18.6%, the viability, T/C (compound 3.16 µM) was 26.5% and 25.6% and 19.4% and the viability, T/C (compound 10 µM) was 24.5% and 24% and 22.7%. For the same compound, the IC50 (curve of compound) was 148 nM and 176 nM and 124 nM.

`CC1COCCN1c1cc(C2(O)CC3CCC(C2)O3)c2cnn(-c3ccn[nH]3)c2n1` (stereo unspecified) was tested, and the viability, T/C (compound 0.0316 µM) was 84.7% and 87.2% and 97.5%, the viability, T/C (compound 0.1 µM) was 58.4% and 59.4% and 64.2% and the viability, T/C (compound 0.316 µM) was 26.5% and 26.1% and 27.2%. For the same compound, the viability, T/C (compound 1 µM) was 18% and 21.5% and 23.2%, the viability, T/C (compound 3.16 µM) was 17.8% and 23.5% and 22.9% and the viability, T/C (compound 10 µM) was 12% and 10.9% and 14.2%. The IC50 (curve of compound) was 135 nM and 139 nM and 157 nM.

With `CC1COCCN1c1cc(C2(S(C)(=N)=O)CC2)nc(-c2ccnc3[nH]ccc23)n1` (stereo unspecified) the viability, T/C (compound 0.0316 µM) was 104% and 101% (2×), the viability, T/C (compound 0.1 µM) was 108% (2×) and 109% and the viability, T/C (compound 0.316 µM) was 106% (2×) and 113%. The viability, T/C (compound 1 µM) was 100% and 96.2% and 104%, the viability, T/C (compound 3.16 µM) was 67.5% and 72.8% and 72.2% and the viability, T/C (compound 10 µM) was 30% and 37.2% and 31.8%. For the same compound, the IC50 (curve of compound) was 5410 nM and 6580 nM and 5950 nM.

`CCCS(=O)(=O)Nc1ccc(F)c(C(=O)c2c[nH]c3ncc(-c4ccc(Cl)cc4)cc23)c1F` was tested, and the viability, T/C (compound 0.0316 µM) was 105% and 121% and 109%, the viability, T/C (compound 0.1 µM) was 108% and 104% and 96.3% and the viability, T/C (compound 0.316 µM) was 120% and 112% and 102%. The viability, T/C (compound 1 µM) was 111% and 113% and 112%, the viability, T/C (compound 3.16 µM) was 115% and 99.8% and 108% and the viability, T/C (compound 10 µM) was 7.3% and 7.67% and 14.8%. The IC50 (curve of compound) was 6250 nM and 5890 nM and 6400 nM.

With `CC[C@@]1(O)C(=O)OCc2c1cc1n(c2=O)Cc2cc3c(CN(C)C)c(O)ccc3nc2-1` the viability, T/C (compound 0.000999 µM) was 104% (2×) and 105%, the viability, T/C (compound 0.00316 µM) was 108% and 109% and 101% and the viability, T/C (compound 0.00999 µM) was 97.4% and 95.7% and 98.8%. The viability, T/C (compound 0.0316 µM) was 63.9% and 62.8% and 59.8%, the viability, T/C (compound 0.0999 µM) was 18.8% and 18.6% and 21.4% and the viability, T/C (compound 0.316 µM) was 22% and 21.9% and 23.2%. The IC50 (curve of compound) was 45.6 nM and 44.2 nM and 42.7 nM.

In the case of `CCc1c2c(nc3ccc(O)cc13)-c1cc3c(c(=O)n1C2)COC(=O)[C@]3(O)CC`, the viability, T/C (compound 0.000999 µM) is reported as 67.3% and 74.7% and 64.5%, the viability, T/C (compound 0.00316 µM) is reported as 29.2% and 22.9% and 21.4% and the viability, T/C (compound 0.00999 µM) is reported as 22.2% and 25.2% and 19.8%. The viability, T/C (compound 0.0316 µM) was 14.2% and 15.5% and 15.7%, the viability, T/C (compound 0.0999 µM) was 9.13% and 8.23% and 8.16% and the viability, T/C (compound 0.316 µM) was 4.31% and 4.99% and 4.01%. The IC50 (curve of compound) was 1.76 nM and 1.83 nM and 1.51 nM.

For `CN(C)c1ccc(Nc2c3ccc(NC(=O)CCN4CCCC4)cc3nc3cc(NC(=O)CCN4CCCC4)ccc23)cc1`, the viability, T/C (compound 0.0316 µM) was 107% [middle of 12 runs], the viability, T/C (compound 0.1 µM) was 106% [middle of 12 runs] and the viability, T/C (compound 0.316 µM) was 103% [middle of 12 runs]. The viability, T/C (compound 1 µM) was 98.5% [middle of 12 runs], the viability, T/C (compound 3.16 µM) was 94.8% [middle of 12 runs] and the viability, T/C (compound 10 µM) was 74% [middle of 12 runs]. The IC50 (compound alone, run of 04/22/2024) was over 10000 nM.
